{"source": "ChEMBL document CHEMBL5696442", "about": "“Discovery of type II inhibitors of TGFβ-activated kinase 1 (TAK1) and mitogen-activated protein kinase kinase kinase kinase 2 (MAP4K2)” (J Med Chem, 2015)", "key": {"[1]": {"molecular_target": "T1, NUAK family SNF1-like kinase 1 (Homo sapiens) (UniProt O60285)", "T1 sequence (whole entry)": "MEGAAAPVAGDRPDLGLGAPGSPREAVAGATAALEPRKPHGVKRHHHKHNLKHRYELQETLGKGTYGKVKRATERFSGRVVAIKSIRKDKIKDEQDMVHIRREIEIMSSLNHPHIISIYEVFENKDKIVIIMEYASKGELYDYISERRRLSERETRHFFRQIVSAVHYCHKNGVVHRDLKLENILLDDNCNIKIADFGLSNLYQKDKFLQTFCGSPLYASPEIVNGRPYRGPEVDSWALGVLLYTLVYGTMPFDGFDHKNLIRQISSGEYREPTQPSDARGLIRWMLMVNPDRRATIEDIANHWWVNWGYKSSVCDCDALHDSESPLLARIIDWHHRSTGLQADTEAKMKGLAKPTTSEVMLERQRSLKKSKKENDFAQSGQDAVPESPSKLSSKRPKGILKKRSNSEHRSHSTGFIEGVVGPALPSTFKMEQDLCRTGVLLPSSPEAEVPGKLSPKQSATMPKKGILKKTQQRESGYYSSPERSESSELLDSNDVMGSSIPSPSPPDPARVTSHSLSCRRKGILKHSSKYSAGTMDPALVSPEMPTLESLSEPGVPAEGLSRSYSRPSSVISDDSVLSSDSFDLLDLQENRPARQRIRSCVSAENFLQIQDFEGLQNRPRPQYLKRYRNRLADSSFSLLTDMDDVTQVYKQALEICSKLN", "assay": "Inhibition of ARK5 (unknown origin) at 10 uM by Ambit Kinomescan binding assay"}, "[2]": {"molecular_target": "Cyclin-dependent kinase 7 (Homo sapiens) (UniProt P50613)", "sequence (P50613 whole entry)": "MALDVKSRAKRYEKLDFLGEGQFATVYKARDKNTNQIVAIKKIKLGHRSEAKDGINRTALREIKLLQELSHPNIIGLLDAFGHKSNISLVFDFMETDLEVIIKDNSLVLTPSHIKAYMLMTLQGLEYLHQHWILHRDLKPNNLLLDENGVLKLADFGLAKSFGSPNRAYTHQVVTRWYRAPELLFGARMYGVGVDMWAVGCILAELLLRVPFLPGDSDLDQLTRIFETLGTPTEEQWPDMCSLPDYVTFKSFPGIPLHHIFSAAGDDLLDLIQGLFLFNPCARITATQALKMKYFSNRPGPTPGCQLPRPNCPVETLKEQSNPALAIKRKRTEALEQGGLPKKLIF", "assay": "Inhibition of CDK7 K2 labeling site in human Huh-7 cells at 1 uM by KiNativ Profiling analysis relative to control", "type": "cell-based"}, "[3]": {"molecular_target": "Tyrosine-protein kinase TXK (Homo sapiens) (UniProt P42681)", "sequence (P42681 whole entry)": "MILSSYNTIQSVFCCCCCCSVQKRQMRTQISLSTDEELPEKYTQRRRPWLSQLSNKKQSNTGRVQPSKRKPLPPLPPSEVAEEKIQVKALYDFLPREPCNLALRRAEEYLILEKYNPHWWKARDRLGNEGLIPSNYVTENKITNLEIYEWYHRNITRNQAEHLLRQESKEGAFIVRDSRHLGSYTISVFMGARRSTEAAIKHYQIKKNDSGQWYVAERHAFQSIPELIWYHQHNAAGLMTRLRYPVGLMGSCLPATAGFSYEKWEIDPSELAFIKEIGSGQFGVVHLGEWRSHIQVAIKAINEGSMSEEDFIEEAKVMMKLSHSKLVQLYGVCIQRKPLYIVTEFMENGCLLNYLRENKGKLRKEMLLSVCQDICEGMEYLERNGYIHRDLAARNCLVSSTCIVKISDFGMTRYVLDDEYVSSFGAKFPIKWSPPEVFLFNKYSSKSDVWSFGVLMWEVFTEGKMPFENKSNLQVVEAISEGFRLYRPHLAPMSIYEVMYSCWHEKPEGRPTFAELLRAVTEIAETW", "assay": "Inhibition of TXK (unknown origin) at 10 uM by Ambit Kinomescan binding assay relative to control; values are per cent of control"}, "[4]": {"molecular_target": "Tyrosine-protein kinase Yes (Homo sapiens) (UniProt P07947)", "sequence (P07947 2-543 limits assumed)": "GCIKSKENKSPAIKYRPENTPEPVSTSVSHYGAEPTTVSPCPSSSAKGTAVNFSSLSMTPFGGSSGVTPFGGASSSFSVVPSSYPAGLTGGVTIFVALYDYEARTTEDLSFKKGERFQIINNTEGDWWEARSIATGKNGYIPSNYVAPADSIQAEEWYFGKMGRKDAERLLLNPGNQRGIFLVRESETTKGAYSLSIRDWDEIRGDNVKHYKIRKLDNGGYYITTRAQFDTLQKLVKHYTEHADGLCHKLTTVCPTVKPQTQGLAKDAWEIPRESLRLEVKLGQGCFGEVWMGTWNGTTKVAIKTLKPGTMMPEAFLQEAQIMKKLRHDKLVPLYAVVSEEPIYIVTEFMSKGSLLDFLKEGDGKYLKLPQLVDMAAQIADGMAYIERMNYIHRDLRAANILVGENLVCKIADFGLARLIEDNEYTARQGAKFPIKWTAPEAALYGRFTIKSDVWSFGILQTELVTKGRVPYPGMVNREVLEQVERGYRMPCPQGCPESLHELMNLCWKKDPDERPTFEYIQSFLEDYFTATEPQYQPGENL", "assay": "Inhibition of YES ACT labeling site in human Huh-7 cell lysate at 1 uM by KiNativ Profiling analysis relative to control", "type": "subcellular"}, "[5]": {"molecular_target": "Casein kinase I isoform delta (Homo sapiens) (UniProt P48730)", "sequence (P48730 whole entry, looked up, canonical isoform)": "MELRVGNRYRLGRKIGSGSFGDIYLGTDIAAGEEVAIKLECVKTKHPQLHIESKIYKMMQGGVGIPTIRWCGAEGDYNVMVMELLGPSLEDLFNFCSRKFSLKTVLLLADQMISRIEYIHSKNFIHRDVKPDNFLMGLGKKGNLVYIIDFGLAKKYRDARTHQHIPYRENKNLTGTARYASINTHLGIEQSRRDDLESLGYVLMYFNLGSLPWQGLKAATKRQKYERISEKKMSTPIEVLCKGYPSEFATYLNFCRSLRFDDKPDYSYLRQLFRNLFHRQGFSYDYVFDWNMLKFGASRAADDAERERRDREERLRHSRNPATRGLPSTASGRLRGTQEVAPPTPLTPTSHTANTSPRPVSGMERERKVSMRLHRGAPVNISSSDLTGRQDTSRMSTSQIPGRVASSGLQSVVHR", "assay": "Inhibition of CK1delta Lys2 labeling site in human Huh-7 cell lysate at 1 uM by KiNativ Profiling analysis relative to control", "type": "subcellular"}, "[6]": {"molecular_target": "Phosphatidylinositol 4-kinase type 2-beta (Homo sapiens) (UniProt Q8TCG2)", "sequence (Q8TCG2 whole entry)": "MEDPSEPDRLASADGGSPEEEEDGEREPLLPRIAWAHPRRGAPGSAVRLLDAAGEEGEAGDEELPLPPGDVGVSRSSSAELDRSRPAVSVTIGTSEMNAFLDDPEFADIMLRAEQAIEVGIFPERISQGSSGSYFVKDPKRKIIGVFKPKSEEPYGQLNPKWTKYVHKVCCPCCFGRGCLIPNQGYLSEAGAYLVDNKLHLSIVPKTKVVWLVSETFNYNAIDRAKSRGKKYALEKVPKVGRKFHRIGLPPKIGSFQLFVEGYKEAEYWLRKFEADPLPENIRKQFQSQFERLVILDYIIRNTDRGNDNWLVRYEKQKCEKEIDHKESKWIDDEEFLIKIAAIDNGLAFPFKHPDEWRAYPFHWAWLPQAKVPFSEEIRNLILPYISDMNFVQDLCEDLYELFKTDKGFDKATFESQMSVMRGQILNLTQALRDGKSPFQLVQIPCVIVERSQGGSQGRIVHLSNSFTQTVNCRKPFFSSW", "assay": "Inhibition of PI4K2B ATP labeling site in human Huh-7 cells at 1 uM by KiNativ Profiling analysis relative to control", "type": "cell-based"}, "[7]": {"molecular_target": "T2, Serine/threonine-protein kinase ULK1 (Homo sapiens) (UniProt O75385)", "T2 sequence (whole entry)": "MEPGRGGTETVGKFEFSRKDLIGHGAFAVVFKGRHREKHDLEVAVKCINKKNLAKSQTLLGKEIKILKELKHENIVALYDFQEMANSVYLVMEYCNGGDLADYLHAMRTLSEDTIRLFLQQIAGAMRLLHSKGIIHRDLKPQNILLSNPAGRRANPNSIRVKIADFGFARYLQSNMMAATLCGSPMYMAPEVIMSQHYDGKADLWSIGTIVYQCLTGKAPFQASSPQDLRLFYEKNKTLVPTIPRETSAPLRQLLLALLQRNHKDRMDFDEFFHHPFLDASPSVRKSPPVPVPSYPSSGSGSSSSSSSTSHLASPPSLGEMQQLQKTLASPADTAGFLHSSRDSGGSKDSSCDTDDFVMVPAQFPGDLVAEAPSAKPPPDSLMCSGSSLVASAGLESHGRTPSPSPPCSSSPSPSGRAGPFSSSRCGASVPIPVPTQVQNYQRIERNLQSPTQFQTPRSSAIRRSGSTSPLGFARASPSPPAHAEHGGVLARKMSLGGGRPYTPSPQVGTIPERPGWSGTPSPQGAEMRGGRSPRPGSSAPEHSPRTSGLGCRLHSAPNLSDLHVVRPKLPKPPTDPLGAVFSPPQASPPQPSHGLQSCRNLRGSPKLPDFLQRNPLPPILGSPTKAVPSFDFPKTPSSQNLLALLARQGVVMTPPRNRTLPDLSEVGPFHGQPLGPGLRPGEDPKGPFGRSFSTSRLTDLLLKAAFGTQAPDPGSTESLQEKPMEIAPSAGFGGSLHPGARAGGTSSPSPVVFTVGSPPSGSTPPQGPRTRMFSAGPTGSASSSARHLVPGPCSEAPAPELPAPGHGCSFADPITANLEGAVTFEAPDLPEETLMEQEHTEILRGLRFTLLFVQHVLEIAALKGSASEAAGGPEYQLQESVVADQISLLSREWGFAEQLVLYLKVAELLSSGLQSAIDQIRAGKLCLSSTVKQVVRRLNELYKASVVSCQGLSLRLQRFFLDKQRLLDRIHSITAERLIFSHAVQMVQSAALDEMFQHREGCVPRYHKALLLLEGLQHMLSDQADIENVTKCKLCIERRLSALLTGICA", "assay": "Inhibition of ULK1 (unknown origin) at 1 uM by Ambit Kinomescan binding assay relative to control"}, "[8]": {"molecular_target": "MAP/microtubule affinity-regulating kinase 3 (Homo sapiens) (UniProt P27448)", "sequence (P27448 whole entry, looked up)": "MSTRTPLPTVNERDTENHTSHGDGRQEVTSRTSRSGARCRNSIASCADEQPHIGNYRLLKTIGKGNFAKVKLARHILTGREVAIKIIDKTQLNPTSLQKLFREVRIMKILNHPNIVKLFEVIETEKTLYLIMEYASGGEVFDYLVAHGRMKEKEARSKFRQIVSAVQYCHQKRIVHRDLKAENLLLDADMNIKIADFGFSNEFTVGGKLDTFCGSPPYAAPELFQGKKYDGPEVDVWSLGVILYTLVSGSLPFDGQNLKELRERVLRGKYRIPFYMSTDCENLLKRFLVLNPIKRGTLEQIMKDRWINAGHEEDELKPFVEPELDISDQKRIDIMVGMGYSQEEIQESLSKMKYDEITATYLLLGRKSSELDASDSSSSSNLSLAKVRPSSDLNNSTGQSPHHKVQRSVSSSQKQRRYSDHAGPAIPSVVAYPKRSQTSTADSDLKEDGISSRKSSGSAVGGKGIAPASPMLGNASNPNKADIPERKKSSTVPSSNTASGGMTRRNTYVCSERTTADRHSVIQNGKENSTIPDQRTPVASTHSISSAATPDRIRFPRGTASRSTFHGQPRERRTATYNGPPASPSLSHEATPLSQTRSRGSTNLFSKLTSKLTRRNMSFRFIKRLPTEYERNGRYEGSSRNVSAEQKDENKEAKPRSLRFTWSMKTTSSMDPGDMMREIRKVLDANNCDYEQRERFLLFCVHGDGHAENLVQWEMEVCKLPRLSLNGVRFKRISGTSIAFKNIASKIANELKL", "assay": "Inhibition of MARK3 Lys1 labeling site in human A-375 cells at 0.5 uM by KiNativ Profiling analysis relative to control", "type": "cell-based"}, "[9]": {"molecular_target": "5'-AMP-activated protein kinase catalytic subunit alpha-2 (Homo sapiens) (UniProt P54646)", "sequence (P54646 whole entry, looked up)": "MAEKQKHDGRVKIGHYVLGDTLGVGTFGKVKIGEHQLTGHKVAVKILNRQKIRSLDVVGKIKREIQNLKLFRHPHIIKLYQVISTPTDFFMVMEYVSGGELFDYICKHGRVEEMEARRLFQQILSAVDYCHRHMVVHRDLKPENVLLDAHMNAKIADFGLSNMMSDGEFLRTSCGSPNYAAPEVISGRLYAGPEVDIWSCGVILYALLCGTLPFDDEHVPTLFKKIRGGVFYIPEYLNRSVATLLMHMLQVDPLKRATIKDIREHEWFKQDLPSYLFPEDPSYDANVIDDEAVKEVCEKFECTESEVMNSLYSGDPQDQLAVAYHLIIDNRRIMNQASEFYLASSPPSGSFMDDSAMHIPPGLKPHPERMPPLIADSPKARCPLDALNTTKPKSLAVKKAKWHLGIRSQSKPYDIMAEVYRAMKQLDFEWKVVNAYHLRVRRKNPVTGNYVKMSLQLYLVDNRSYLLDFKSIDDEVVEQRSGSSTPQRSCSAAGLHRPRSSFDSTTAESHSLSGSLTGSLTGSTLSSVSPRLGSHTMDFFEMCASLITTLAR", "assay": "Inhibition of AMPKa2 Lys2 labeling site in human A-375 cells at 0.05 uM by KiNativ Profiling analysis relative to control", "type": "cell-based"}, "[10]": {"molecular_target": "Cyclin-dependent kinase 3 (Homo sapiens) (UniProt Q00526)", "sequence (Q00526 whole entry, looked up)": "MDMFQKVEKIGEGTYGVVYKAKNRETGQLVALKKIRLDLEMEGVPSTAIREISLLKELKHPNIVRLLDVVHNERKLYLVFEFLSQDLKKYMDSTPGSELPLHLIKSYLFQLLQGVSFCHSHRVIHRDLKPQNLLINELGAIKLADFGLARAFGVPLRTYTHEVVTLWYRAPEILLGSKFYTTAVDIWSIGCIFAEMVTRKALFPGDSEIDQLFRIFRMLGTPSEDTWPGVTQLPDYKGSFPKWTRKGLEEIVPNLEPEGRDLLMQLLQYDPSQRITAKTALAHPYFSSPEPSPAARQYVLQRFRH", "assay": "Inhibition of CDK3 (unknown origin) at 1 uM by Ambit Kinomescan binding assay relative to control; values are per cent of control"}, "[11]": {"molecular_target": "Insulin receptor-related protein (Homo sapiens) (UniProt P14616)", "assay": "Inhibition of INSRR (unknown origin) at 1 uM by Ambit Kinomescan binding assay relative to control; values are per cent of control"}, "[12]": {"molecular_target": "Phosphatidylinositol 4,5-bisphosphate 3-kinase catalytic subunit beta isoform (Homo sapiens) (UniProt P42338)", "sequence (P42338 whole entry, looked up, canonical isoform)": "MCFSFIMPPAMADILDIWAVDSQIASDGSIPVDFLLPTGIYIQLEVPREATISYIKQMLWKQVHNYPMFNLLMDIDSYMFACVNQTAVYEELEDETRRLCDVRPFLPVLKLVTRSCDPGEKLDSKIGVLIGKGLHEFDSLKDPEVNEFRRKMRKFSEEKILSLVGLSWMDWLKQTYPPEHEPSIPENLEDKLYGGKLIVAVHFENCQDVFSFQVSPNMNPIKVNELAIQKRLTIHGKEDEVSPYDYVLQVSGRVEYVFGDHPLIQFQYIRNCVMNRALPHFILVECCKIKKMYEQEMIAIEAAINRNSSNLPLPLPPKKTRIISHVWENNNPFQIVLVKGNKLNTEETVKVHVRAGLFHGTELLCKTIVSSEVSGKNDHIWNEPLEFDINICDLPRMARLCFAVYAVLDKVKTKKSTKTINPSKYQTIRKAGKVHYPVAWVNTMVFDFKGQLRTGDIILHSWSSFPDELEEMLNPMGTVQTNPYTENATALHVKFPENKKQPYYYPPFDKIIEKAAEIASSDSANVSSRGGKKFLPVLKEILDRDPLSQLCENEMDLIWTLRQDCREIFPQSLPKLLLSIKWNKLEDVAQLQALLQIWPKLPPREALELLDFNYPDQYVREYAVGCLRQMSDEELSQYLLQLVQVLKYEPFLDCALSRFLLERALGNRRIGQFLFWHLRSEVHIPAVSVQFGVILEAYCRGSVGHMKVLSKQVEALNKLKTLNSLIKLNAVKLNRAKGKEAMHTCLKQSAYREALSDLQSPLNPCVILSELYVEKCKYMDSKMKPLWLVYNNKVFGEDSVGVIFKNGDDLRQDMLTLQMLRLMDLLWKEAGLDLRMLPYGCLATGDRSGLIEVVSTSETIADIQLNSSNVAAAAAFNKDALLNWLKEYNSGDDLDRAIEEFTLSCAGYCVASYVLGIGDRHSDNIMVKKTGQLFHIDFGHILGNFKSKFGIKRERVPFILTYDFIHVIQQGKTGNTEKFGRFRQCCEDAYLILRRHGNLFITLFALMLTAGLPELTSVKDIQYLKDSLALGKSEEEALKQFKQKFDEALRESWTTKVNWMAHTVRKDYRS", "assay": "Inhibition of PIK3CB (unknown origin) at 1 uM by Ambit Kinomescan binding assay relative to control; values are per cent of control"}}, "note": "Calls of active or inactive are those of the source. The calls are words filed in the database; no cut-off is given here.", "data": [{"compound": "CCN1CCN(Cc2ccc(NC(=O)c3ccc(C)c(Oc4ccnc5[nH]ccc45)c3)cc2C(F)(F)F)CC1", "values": [{"measurement": "inhibition", "setting": "[1]", "result": "inactive"}, {"measurement": "inhibition", "setting": "[2]", "result": 5.6, "unit": "%"}, {"measurement": "residual activity", "setting": "[3]", "result": 12, "unit": "%"}]}, {"compound": "CNc1cc(Oc2cc(C(=O)Nc3cc(N4CCN(C)CC4)cc(C(F)(F)F)c3)ccc2C)ncn1", "values": [{"measurement": "inhibition", "setting": "[4]", "result": 22, "unit": "%"}, {"measurement": "inhibition", "setting": "[5]", "result": 0.6, "unit": "%"}, {"measurement": "inhibition", "setting": "[6]", "result": 16, "unit": "%"}]}, {"compound": "CCN1CCN(Cc2ccc(NC(=O)c3ccc(C)c(/C=C/c4cnc5[nH]ccc5c4OC)c3)cc2C(F)(F)F)CC1", "values": [{"measurement": "inhibition", "setting": "[7]", "result": 68, "unit": "%"}, {"measurement": "inhibition", "setting": "[8]", "result": 12.3, "unit": "%"}, {"measurement": "inhibition", "setting": "[9]", "result": 7.3, "unit": "%"}, {"measurement": "% of control", "setting": "[10]", "result": 100, "unit": "%"}, {"measurement": "residual activity", "setting": "[11]", "result": 100, "unit": "%"}, {"measurement": "residual activity", "setting": "[12]", "result": 100, "unit": "%"}]}]}
